Assay: xn = mol fraction of the nth substance listed
Details: 101 kPa, Liquid

C1N2CN3CN1CN(C2)C3 [1,3,5,7-tetraazaadamantane] + CC(=O)O
Details | mass density [kg/m3] | viscosity [mPa·s]
293.15 K, x1 = 0.0201 | 1058.6 | 1.497
293.15 K, x1 = 0.0401 | 1066.7 | 1.865
293.15 K, x1 = 0.06 | 1075.67 | 2.363
293.15 K, x1 = 0.0801 | 1085.77 | 3.021
293.15 K, x1 = 0.1 | 1091.87 | 3.841
293.15 K, x1 = 0.1201 | 1100.76 | 4.951
293.15 K, x1 = 0.15 | 1111.19 | 7.154
298.15 K, x1 = 0.0201 | 1052.66 | 1.367
298.15 K, x1 = 0.0401 | 1061.41 | 1.682
298.15 K, x1 = 0.06 | 1070.38 | 2.106
298.15 K, x1 = 0.0801 | 1080.66 | 2.655
298.15 K, x1 = 0.1 | 1086.54 | 3.333
298.15 K, x1 = 0.1201 | 1095.79 | 4.254
298.15 K, x1 = 0.15 | 1106.18 | 5.988
303.15 K, x1 = 0.0201 | 1046.65 | 1.248
303.15 K, x1 = 0.0401 | 1055.87 | 1.523
303.15 K, x1 = 0.06 | 1065.17 | 1.893
303.15 K, x1 = 0.0801 | 1075.44 | 2.355
303.15 K, x1 = 0.1 | 1081.61 | 2.919
303.15 K, x1 = 0.1201 | 1090.8 | 3.657
303.15 K, x1 = 0.15 | 1101.14 | 5.085
308.15 K, x1 = 0.0201 | 1042.8 | 1.148
308.15 K, x1 = 0.0401 | 1050.6 | 1.383
308.15 K, x1 = 0.06 | 1059.92 | 1.703
308.15 K, x1 = 0.0801 | 1068.93 | 2.091
308.15 K, x1 = 0.1 | 1076.58 | 2.565
308.15 K, x1 = 0.1201 | 1086.04 | 3.179
308.15 K, x1 = 0.15 | 1096.34 | 4.368
313.15 K, x1 = 0.0201 | 1036.2 | 1.059
313.15 K, x1 = 0.0401 | 1045.66 | 1.268
313.15 K, x1 = 0.06 | 1055.02 | 1.549
313.15 K, x1 = 0.0801 | 1063.52 | 1.879
313.15 K, x1 = 0.1 | 1071.68 | 2.296
313.15 K, x1 = 0.1201 | 1081.27 | 2.806
313.15 K, x1 = 0.15 | 1091.63 | 3.821
318.15 K, x1 = 0.0201 | 1030.1 | 0.992
318.15 K, x1 = 0.0401 | 1039.61 | 1.179
318.15 K, x1 = 0.06 | 1049.52 | 1.435
318.15 K, x1 = 0.0801 | 1057.74 | 1.719
318.15 K, x1 = 0.1 | 1065.6 | 2.073
318.15 K, x1 = 0.1201 | 1076.49 | 2.512
318.15 K, x1 = 0.15 | 1086 | 3.352
323.15 K, x1 = 0.0201 | 1024.35 | 0.909
323.15 K, x1 = 0.0401 | 1034.21 | 1.072
323.15 K, x1 = 0.06 | 1044.05 | 1.296
323.15 K, x1 = 0.0801 | 1052.4 | 1.541
323.15 K, x1 = 0.1 | 1060.71 | 1.842
323.15 K, x1 = 0.1201 | 1069.06 | 2.203
323.15 K, x1 = 0.15 | 1080.9 | 2.893
328.15 K, x1 = 0.0201 | 1019.23 | 0.845
328.15 K, x1 = 0.0401 | 1028.98 | 0.988
328.15 K, x1 = 0.06 | 1039.22 | 1.185
328.15 K, x1 = 0.0801 | 1047.33 | 1.395
328.15 K, x1 = 0.1 | 1055.72 | 1.657
328.15 K, x1 = 0.1201 | 1064 | 1.97
328.15 K, x1 = 0.15 | 1075.88 | 2.545
333.15 K, x1 = 0.0201 | 1014.76 | 0.79
333.15 K, x1 = 0.0401 | 1024.69 | 0.919
333.15 K, x1 = 0.06 | 1034.16 | 1.096
333.15 K, x1 = 0.0801 | 1043.04 | 1.279
333.15 K, x1 = 0.1 | 1051.63 | 1.515
333.15 K, x1 = 0.1201 | 1059.77 | 1.776
333.15 K, x1 = 0.15 | 1071.94 | 2.285

CC(=O)OC(C)=O [ethanoic anhydride] + CC(=O)O
Details | mass density [kg/m3] | viscosity [mPa·s]
293.15 K, x2 = 0 | 1080.89 | 0.888
293.15 K, x2 = 0.1 | 1079.28 | 0.905
293.15 K, x2 = 0.2 | 1077.19 | 0.92
293.15 K, x2 = 0.2999 | 1074.93 | 0.934
293.15 K, x2 = 0.3996 | 1072.42 | 0.954
293.15 K, x2 = 0.4999 | 1069.56 | 0.975
293.15 K, x2 = 0.5965 | 1066.68 | 1.004
293.15 K, x2 = 0.6992 | 1063.1 | 1.041
293.15 K, x2 = 0.8004 | 1059.19 | 1.084
293.15 K, x2 = 0.8976 | 1054.94 | 1.145
298.15 K, x2 = 0 | 1074.8 | 0.829
298.15 K, x2 = 0.1 | 1073.24 | 0.844
298.15 K, x2 = 0.2 | 1071.18 | 0.859
298.15 K, x2 = 0.2999 | 1068.96 | 0.872
298.15 K, x2 = 0.3996 | 1066.47 | 0.887
298.15 K, x2 = 0.4999 | 1063.66 | 0.908
298.15 K, x2 = 0.5965 | 1060.8 | 0.933
298.15 K, x2 = 0.6992 | 1057.27 | 0.966
298.15 K, x2 = 0.8004 | 1053.41 | 1.008
298.15 K, x2 = 0.8976 | 1049.21 | 1.057
303.15 K, x2 = 0 | 1068.7 | 0.778
303.15 K, x2 = 0.1 | 1067.18 | 0.793
303.15 K, x2 = 0.2 | 1065.17 | 0.805
303.15 K, x2 = 0.2999 | 1062.98 | 0.819
303.15 K, x2 = 0.3996 | 1060.53 | 0.831
303.15 K, x2 = 0.4999 | 1057.75 | 0.849
303.15 K, x2 = 0.5965 | 1054.93 | 0.874
303.15 K, x2 = 0.6992 | 1051.45 | 0.903
303.15 K, x2 = 0.8004 | 1047.64 | 0.936
303.15 K, x2 = 0.8976 | 1043.48 | 0.985
308.15 K, x2 = 0 | 1062.61 | 0.729
308.15 K, x2 = 0.1 | 1061.12 | 0.742
308.15 K, x2 = 0.2 | 1059.15 | 0.754
308.15 K, x2 = 0.2999 | 1057 | 0.768
308.15 K, x2 = 0.3996 | 1054.57 | 0.777
308.15 K, x2 = 0.4999 | 1051.83 | 0.793
308.15 K, x2 = 0.5965 | 1049.05 | 0.814
308.15 K, x2 = 0.6992 | 1045.62 | 0.842
308.15 K, x2 = 0.8004 | 1041.85 | 0.873
308.15 K, x2 = 0.8976 | 1037.75 | 0.919
313.15 K, x2 = 0 | 1056.49 | 0.688
313.15 K, x2 = 0.1 | 1055.06 | 0.699
313.15 K, x2 = 0.2 | 1053.12 | 0.71
313.15 K, x2 = 0.2999 | 1051 | 0.721
313.15 K, x2 = 0.3996 | 1048.6 | 0.734
313.15 K, x2 = 0.4999 | 1045.9 | 0.748
313.15 K, x2 = 0.5965 | 1043.16 | 0.766
313.15 K, x2 = 0.6992 | 1039.78 | 0.791
313.15 K, x2 = 0.8004 | 1036.06 | 0.82
313.15 K, x2 = 0.8976 | 1032.01 | 0.86
318.15 K, x2 = 0 | 1050.38 | 0.648
318.15 K, x2 = 0.1 | 1048.96 | 0.659
318.15 K, x2 = 0.2 | 1047.07 | 0.666
318.15 K, x2 = 0.2999 | 1044.99 | 0.678
318.15 K, x2 = 0.3996 | 1042.62 | 0.688
318.15 K, x2 = 0.4999 | 1039.96 | 0.703
318.15 K, x2 = 0.5965 | 1037.26 | 0.721
318.15 K, x2 = 0.6992 | 1033.93 | 0.743
318.15 K, x2 = 0.8004 | 1030.27 | 0.77
318.15 K, x2 = 0.8976 | 1026.28 | 0.8
323.15 K, x2 = 0 | 1044.24 | 0.61
323.15 K, x2 = 0.1 | 1042.87 | 0.621
323.15 K, x2 = 0.2 | 1041.01 | 0.627
323.15 K, x2 = 0.2999 | 1038.96 | 0.638
323.15 K, x2 = 0.3996 | 1036.63 | 0.649
323.15 K, x2 = 0.4999 | 1034.01 | 0.661
323.15 K, x2 = 0.5965 | 1031.34 | 0.676
323.15 K, x2 = 0.6992 | 1028.06 | 0.699
323.15 K, x2 = 0.8004 | 1024.46 | 0.723
323.15 K, x2 = 0.8976 | 1020.54 | 0.751
328.15 K, x2 = 0 | 1038.07 | 0.58
328.15 K, x2 = 0.1 | 1036.74 | 0.587
328.15 K, x2 = 0.2 | 1034.94 | 0.595
328.15 K, x2 = 0.2999 | 1032.91 | 0.603
328.15 K, x2 = 0.3996 | 1030.61 | 0.614
328.15 K, x2 = 0.4999 | 1028.04 | 0.625
328.15 K, x2 = 0.5965 | 1025.39 | 0.639
328.15 K, x2 = 0.6992 | 1022.18 | 0.66
328.15 K, x2 = 0.8004 | 1018.64 | 0.68
328.15 K, x2 = 0.8976 | 1014.79 | 0.708
333.15 K, x2 = 0 | 1031.9 | 0.548
333.15 K, x2 = 0.1 | 1030.63 | 0.556
333.15 K, x2 = 0.2 | 1028.83 | 0.562
333.15 K, x2 = 0.2999 | 1026.84 | 0.57
333.15 K, x2 = 0.3996 | 1024.57 | 0.58
333.15 K, x2 = 0.4999 | 1022.05 | 0.59
333.15 K, x2 = 0.5965 | 1019.44 | 0.605
333.15 K, x2 = 0.6992 | 1016.3 | 0.622
333.15 K, x2 = 0.8004 | 1012.82 | 0.64
333.15 K, x2 = 0.8976 | 1009.03 | 0.665
338.15 K, x2 = 0 | 1025.7 | 0.521
338.15 K, x2 = 0.1 | 1024.48 | 0.53
338.15 K, x2 = 0.2 | 1022.71 | 0.533
338.15 K, x2 = 0.2999 | 1020.75 | 0.542
338.15 K, x2 = 0.3996 | 1018.52 | 0.551
338.15 K, x2 = 0.4999 | 1016.04 | 0.558
338.15 K, x2 = 0.5965 | 1013.48 | 0.575
338.15 K, x2 = 0.6992 | 1010.39 | 0.59
338.15 K, x2 = 0.8004 | 1006.97 | 0.605
338.15 K, x2 = 0.8976 | 1003.24 | 0.629

Reference: the NIST ThermoML archive (doi:10.1021/je8003782)
